Experiments:
Test in all cases: relative viability (nuclei count vs DMSO), 5 days (fraction); higher = more cells survive
XMD8-85 + Pictilisib = compound: CN1CCN(CC1)C2=CC(=C(C=C2)NC3=NC=C4C(=N3)N(C5=CC=CC=C5C(=O)N4C)C)OC [XMD8-85] + CS(=O)(=O)N1CCN(Cc2cc3nc(-c4cccc5[nH]ncc45)nc(N4CCOCC4)c3s2)CC1 [Pictilisib] (partner 1 µM)
Outline: (§1)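 Five library-drug doses in √10 steps were combined with a fixed anchor-drug dose, or a single drug was given alone, by pin tool to lung cancer cell lines in 1536-well plates the day after seeding. Nuclei were stained and counted after 5 days. Relative viability is the nuclei count in treated wells over that in vehicle wells, taken as the median of duplicate plates.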

XMD8-85 + Decitabine = compound: CN1CCN(CC1)C2=CC(=C(C=C2)NC3=NC=C4C(=N3)N(C5=CC=CC=C5C(=O)N4C)C)OC [XMD8-85] + Nc1ncn([C@H]2C[C@H](O)[C@@H](CO)O2)c(=O)n1 [Decitabine] (partner 2 µM)
Outline: as §1

4EGI-1 + Trametinib = compound: O=C(O)C(Cc1ccccc1[N+](=O)[O-])=NNc1nc(-c2ccc(Cl)c(Cl)c2)cs1 (mixture of isomers) [4EGI-1] + CC(=O)Nc1cccc(-n2c(=O)n(C3CC3)c(=O)c3c(Nc4ccc(I)cc4F)n(C)c(=O)c(C)c32)c1 [Trametinib] (partner 0.02 µM)
Outline: as §1

4EGI-1 + AZD7762 = compound: O=C(O)C(Cc1ccccc1[N+](=O)[O-])=NNc1nc(-c2ccc(Cl)c(Cl)c2)cs1 (mixture of isomers) [4EGI-1] + NC(=O)Nc1cc(-c2cccc(F)c2)sc1C(=O)N[C@H]1CCCNC1 [AZD7762] (partner 0.2 µM)
Outline: as §1

Cell Line	relative viability (XMD8-85 + Pictilisib; first compound 0.08 µM)	relative viability (XMD8-85 + Pictilisib; first compound 0.253 µM)	relative viability (XMD8-85 + Pictilisib; first compound 0.8 µM)	relative viability (XMD8-85 + Pictilisib; first compound 2.53 µM)	relative viability (XMD8-85 + Pictilisib; first compound 8 µM)	relative viability (XMD8-85 + Decitabine; first compound 0.08 µM)	relative viability (XMD8-85 + Decitabine; first compound 0.253 µM)	relative viability (XMD8-85 + Decitabine; first compound 0.8 µM)	relative viability (XMD8-85 + Decitabine; first compound 2.53 µM)	relative viability (XMD8-85 + Decitabine; first compound 8 µM)	relative viability (4EGI-1 + Trametinib; first compound 0.5 µM)	relative viability (4EGI-1 + Trametinib; first compound 5 µM)	relative viability (4EGI-1 + Trametinib; first compound 15.81 µM)	relative viability (4EGI-1 + Trametinib; first compound 50 µM)	relative viability (4EGI-1 + AZD7762; first compound 0.5 µM)	relative viability (4EGI-1 + AZD7762; first compound 5 µM)	relative viability (4EGI-1 + AZD7762; first compound 15.81 µM)	relative viability (4EGI-1 + AZD7762; first compound 50 µM)	relative viability (4EGI-1 + Trametinib; first compound 1.581 µM)	relative viability (4EGI-1 + AZD7762; first compound 1.581 µM)
PC-14	0.618	0.521	0.661	0.681	0.462	0.275	0.276	0.223	0.162	0.133	1.01	0.786	0.561	0.0572	0.342	0.367	0.117	0.0594		
NCI-H520	0.222	0.271	0.295	0.248	0.231		0.506	0.496	0.528	0.429	0.947	0.749	0.724	0.145					0.83	
NCI-H2342						0.7	0.709	0.677	0.777	0.867	0.894	0.881	0.98	0.906	0.441	0.501	0.559	0.308	0.802	0.477
NCI-H3122	0.687	0.573	0.649	0.646	0.611	0.401	0.439	0.481	0.507	0.543	0.235	0.233	0.232	0.305	1.01	0.957	0.926	0.48	0.246	0.972
HCC-78	0.267	0.22	0.228	0.206	0.192	0.672	0.694	0.736	0.671	0.675	1.18	0.733	0.674	0.788	0.617	0.651	0.451	0.512		
SW 1573	0.574	0.523	0.591	0.487	0.357	0.465	0.529		0.522	0.338	0.59	0.526	0.514	0.251					0.476	
RERF-LC-KJ	0.504	0.444	0.524	0.603	0.412		0.703	0.811	0.767	0.496	0.887	0.851	0.726	0.516	0.984	1.11	0.669	0.604	0.679	0.605
SK-MES-1	0.349	0.371	0.342	0.383	0.375	0.348	0.353	0.39	0.39	0.3	0.582	0.568	0.541	0.418					0.559	
NCI-H1993	0.859	0.795	0.822	0.701	0.814	0.543	0.555	0.585	0.561	0.57	0.654	0.504	0.607	0.432	0.904	0.937	0.504	0.356	0.49	0.689
NCI-H1915	0.985	0.944	0.936	1.02	0.676	0.279	0.262	0.838	0.563	0.253	0.367	0.308	0.289	0.245	0.775	0.69	0.726	0.301	0.234	0.546
NCI-H1650	0.508	0.501	0.64	0.539	0.226	0.539	0.414	0.487	0.374	0.371	0.658	0.643	0.275	0.182						
HCC-44	0.616	0.548	0.767	0.783	0.452	0.976	0.979	0.922	0.973	0.887	1.04	0.994	0.921	0.507	1.02	0.976	0.922	0.799	0.948	0.984
NCI-H2170	0.26	0.341	0.335	0.305	0.289	0.478	0.478	0.498	0.497	0.484	0.956	0.876	0.866	0.645	0.923	1.03	0.697	0.244	0.773	0.806
NCI-H1975	0.322	0.257	0.267	0.29	0.242	0.392	0.359	0.382	0.328	0.35	0.341	0.325	0.289	0.212	0.837	0.717	0.67	0.557	0.32	0.539
HCC-827	1.16	1.03	0.902	1.11	1.15	0.389	0.356	0.316	0.374	0.369	0.575	0.611		0.505	0.255	0.211		0.139	0.458	0.217
NCI-H2347	0.637	0.531	0.555	0.437	0.604	0.599	0.619	0.583		0.531	0.304	0.309	0.298	0.302	0.858	0.734	0.732	0.593	0.27	0.78
NCI-H1437	0.4	0.376	0.433	0.333	0.318	0.641	0.534	0.596		0.501	0.608	0.549	0.337	0.207	1.09	1.09	0.525	0.315	0.537	1.01

From the supplement of paper PMC10307832
